Publication PMC8065212, “The active form of the influenza cap-snatching endonuclease inhibitor baloxavir marboxil is a tight binding inhibitor” (The Journal of Biological Chemistry, 2021)
Where “and” joins values, the source holds several entries; their conditions need not be identical. Identical values can stand only once. Entries after “also recorded” stand apart in the source; their conditions may differ.

Key:
FluB-ht PA I38T [1] = target: T1, FluB-ht PA I38T (Influenza B virus, UniProt Q5V8Z9, I38T); type: biochemical, Influenza B (B/Memphis/13/03)
FluB-ht PA I38T [2] = type: biochemical, Influenza B (B/Memphis/13/03)
FluB-ht PA I38T [3] = target: T1, FluB-ht PA I38T; type: biochemical, Influenza B (B/Memphis/13/03); remark: listed apart in the source
FluB-ht PA I38T [4] = target: T1, FluB-ht PA I38T; type: biochemical, Influenza B (B/Memphis/13/03); remark: listed apart in the source
influenza B I38 mutants = conditions: cited from earlier work
influenza virus = conditions: cited from earlier work
influenza A I38 mutants = conditions: cited from earlier work

O=C1c2c(O)c(=O)ccn2N([C@@H]2c3ccccc3SCc3c2ccc(F)c3F)[C@@H]2COCCN12 [BXA, baloxavir acid]
BXA concentration at which an effect of preincubation is observed (FluB-ht PA I38T [1]): 600 nM | effect of preincubation length on activity (FluB-ht PA I38T [1]): negligible effects; also recorded: time-independent | decrease in inhibition (difference in IC50), PA I38T versus WT (FluB-ht PA I38T [2]): approximately threefold decrease | increase of Ki^app, PA I38T with respect to WT (FluB-ht PA I38T [2]): ~18 fold | slope of plot of IC50 versus enzyme concentration (FluB-ht PA I38T [3]): 0.58 and ~0.5 | inhibition of endonuclease activity by order of addition (FluB-ht PA I38T [4]): no inhibition; also recorded: not observed regardless of the order of addition

COC(=O)OCOc1c2n(ccc1=O)N([C@@H]1c3ccccc3SCc3c1ccc(F)c3F)[C@@H]1COCCN1C2=O [BXM, Baloxavir marboxil]
increase in EC50 values with mutations at position I38 (influenza B I38 mutants): up to tenfold | increase in EC50 values of mutant viruses (influenza virus): up to 50 fold | increase in EC50 values with mutations at position I38 (influenza A I38 mutants): up to 50 fold
